One assay concerns S. aureus ATCC29213. In words: FaAST (FDAA metabolic labeling method). The assay is classed as cell-based, Staphylococcus aureus. Particulars: unit assumed. On the procedure: (§1) Take the colony to be tested that has been cultured overnight on the plate and fully mix it in normal saline to make a uniform bacterial solution. Dilute it into Cation-Adjusted Mueller Hinton Broth (CAMHB) culture medium to make a bacterial solution with OD600=0.05. • 2. Add 45 μl antibiotic solutions of different concentrations to 96-well plates (see Table 1 for antibiotic concentration gradient settings). • 3. Add 50 μl of the bacterial solution prepared in step 1 to the 96-well plate and mix well. • 4. Add 5 μl of 10 mM Cy5-DAA probe (final concentration 0.15 mM, see FIG. 1 for its structure) into each well, mix well, and cultivate in dark for 2 hours. • 5. Add 200 μl After PBS solution is diluted, the fluorescence intensity of each sample is detected by flow cytometry. The flow detection results are shown in FIG. 4-5, showing the curve of the change of antibiotic concentration gradient and fluorescence intensity. The MIC (minimum inhibitory concentration) can be obtained by referring to this curve.
(§2) Bacteria with antibiotic resistance are shown in bold in the following table.

The next assay concerns S. aureus Sa22. Put plainly: FaAST (FDAA metabolic labeling method). Format: cell-based, Staphylococcus aureus. To be noted: unit assumed. The procedure:
as §1, §2

Another assay relates to S. aureus Sa23. In words: FaAST (FDAA metabolic labeling method). Format: cell-based, Staphylococcus aureus. Particulars: unit assumed. The procedure:
as §1, §2

The subject of assay [1] is E. faecalis ATCC29212. In words: BMD susceptibility test. The assay is classed as cell-based, Enterococcus faecalis. Particulars: unit assumed.
Assay [2] relates to E. faecalis ATCC29212. In words: FaAST (FDAA metabolic labeling method). To be noted: unit assumed. Format: cell-based, Enterococcus faecalis. The essentials:
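Bacteria at OD600=0.05 in CAMHB exposed to antibiotic concentration gradients with Cy5-DAA probe […], 2 h in the dark. Fluorescence read by flow cytometry after PBS dilution; MIC taken from the curve of fluorescence intensity versus antibiotic concentration.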

Assay [3] concerns E.coli 1113. In words: FDAA metabolic labeling susceptibility test (Cy5-DAA probe, flow cytometry). Format: cell-based, Escherichia coli. To be noted: Escherichia coli; E.coli 1113; Cy5-DAA probe, 2 hours; read-out: MIC, FDAA. On the procedure: (§3) The specific experimental steps are as follows: • 1. Take the colony to be tested that has been cultured overnight on the plate and fully mix it in normal saline to make a uniform bacterial solution. Dilute it into CAMHB medium to make a bacterial solution with OD600=0.05. • 2. Add 45 μl antibiotic solutions to be tested of different concentrations to 96-well plates (see Table 3 for antibiotic concentration gradient settings). • 3. Add 50 μl of bacterial solution prepared in Step 1 to the 96-well plate and mix well. • 4.5 μl of 10 mM Cy5-DAA probe was added to each well (final concentration was 0.15 mM, and its structure was shown in FIG. 1). After mixing, the probe was incubated for 2 hours in the dark. • 5. After dilution with 200 μl PBS solution, the fluorescence intensity of each sample was detected by flow cytometry. The flow detection results are shown in the attached FIG. 4-5, showing the curve of antibiotic concentration gradient and fluorescence intensity, and the MIC (minimum inhibitory concentration) is obtained by referring to this curve.
In general terms: In flow cytometry, cells or beads pass a laser one at a time.

Assay [4] deals with E.coli 1146. The assay is described as above. Format: cell-based, Escherichia coli. To be noted: Escherichia coli; E.coli 1146; Cy5-DAA probe, 2 hours; read-out: MIC, FDAA. The procedure: as §3
For assay [5], the system named is E.coli 1113. In words: Vitek 2 drug sensitivity test. The assay is classed as cell-based, Escherichia coli.
In assay [6] the test system is E.coli 1146. Put plainly: Vitek 2 drug sensitivity test. Format: cell-based, Escherichia coli.
The next assay relates to P. aeruginosa Pa2. In words: FaAST (FDAA metabolic labeling). To be noted: unit assumed. Format: cell-based, Pseudomonas aeruginosa. The procedure:
as §3
(§4) Antibiotic resistant strains are shown in bold in the table below.

For the next assay, the system named is P. aeruginosa Pa3. Put plainly: FaAST (FDAA metabolic labeling). To be noted: unit assumed. The assay is classed as cell-based, Pseudomonas aeruginosa. On the procedure: as §3, §4
The next assay has as its system Pa ATCC 27853. Put plainly: FaAST (FDAA metabolic labeling). The assay is classed as cell-based, Pseudomonas aeruginosa. To be noted: unit assumed. The procedure:
as §3, §4

The test system of the next assay is A. baumannii Ab19. In words: FaAST (FDAA metabolic labeling). To be noted: unit assumed. The assay is classed as cell-based, Acinetobacter baumannii. The procedure:
as §3, §4

A further assay concerns K. pneumoniae Kp6. In words: BMD susceptibility test. Format: cell-based, Klebsiella pneumoniae. To be noted: unit assumed.
Assay [7] relates to bacteria contained in alveolar lavage fluid. Put plainly: FDAA metabolic labeling susceptibility test of alveolar lavage fluid (Cy5-DAA probe). Format: cell-based. Particulars: alveolar lavage fluid of patients with hospital acquired pneumonia, 2 hours. The procedure:
With reference to the flow chart of the rapid detection method of antimicrobial susceptibility test based on FDAA metabolic markers shown in FIG. 3, FDAA is used for the detection of antimicrobial susceptibility test of alveolar lavage fluid. The specific experimental steps are as follows: • 1. Mix bronchoalveolar lavage fluid (BALF, 10 ml) of patients with hospital acquired pneumonia with cation regulated broth medium (CAMHB, 10 ml) of twice the concentration to prepare the bacterial fluid to be tested. • 2. Add 45 μl antibiotic solutions of different concentrations to the 96-well plate separately (see Table 1 for antibiotic concentration gradient settings). • 3. Add 50 μl of the bacterial solution prepared in step 1 to the 96-well plate and mix well. • 4. Add 5 μl of 10 mM Cy5-DAA probe (final concentration 0.15 mM, see FIG. 1 for its structure) into each well, mix well, and then cultivate in dark for 2 hours. • 5. Add 200 μl PBS solution for dilution, and then use flow cytometry to detect the fluorescence intensity of each sample.

The subject of assay [8] is alveolar lavage fluid sample 0204, A. baumannii. In words: BMD susceptibility test of patient alveolar lavage fluid. The assay is classed as cell-based, Acinetobacter baumannii. Particulars: unit assumed.
In assay [9] the test system is alveolar lavage fluid sample 0203, K. pneumoniae. Described as above. The assay is classed as cell-based, Klebsiella pneumoniae. To be noted: unit assumed. An excerpt: (§5) The results of antimicrobial susceptibility test of alveolar lavage fluid of seven patients using FDAA and BMD methods are shown in the following table. The drug-resistant bacteria are shown in bold.

In assay [10] the test system is alveolar lavage fluid sample 0226, K. pneumoniae. The description is as above. Format: cell-based, Klebsiella pneumoniae. To be noted: unit assumed.
Source text: as §5

The subject of assay [11] is Pseudomonas aeruginosa PAE2. Put plainly: VITEK drug sensitivity test. Format: cell-based. Particulars: unit assumed.
Assay [12] has as its system Enterococcus faecium EFM26. Put plainly: VITEK drug sensitivity test. The assay is classed as cell-based. To be noted: unit assumed.
Assay [13] concerns Acinetobacter baumannii ABA16. Put plainly: VITEK drug sensitivity test. To be noted: unit assumed. The assay is classed as cell-based.

Molecules are shown by their SMILES. In brackets after ≈: the same amount, converted by molar mass.
For Sensibility in this document: key: S: Drug sensitive; R: Drug resistance.

The term MIC denotes the lowest concentration found to suppress growth. As for `C[C@H]1COc2c(N3CCN(C)CC3)c(F)cc3c(=O)c(C(=O)O)cn1c23` [Levofloxacin, levofloxacin], the FaAST (MIC) in the assay with S. aureus ATCC29213 turned out to be 0.5 µg/mL; in the assay with S. aureus Sa22, 32 µg/mL; with S. aureus Sa23, 1 µg/mL; in the assay with E. faecalis ATCC29212 [2], 1 µg/mL; in the assay with P. aeruginosa Pa2 it was 0.5 µg/mL; with P. aeruginosa Pa3, 0.5 µg/mL. The FaAST (MIC) in the assay with Pa ATCC 27853 and in the assay with A. baumannii Ab19 was 0.5 µg/mL each time. Moreover, the BMD (MIC) in the assay with E. faecalis ATCC29212 [1] was 1 µg/mL; in the assay on K. pneumoniae Kp6 it was at most 0.25 µg/mL; in assay [8], 0.5 µg/mL; in [9] it was 0.25 µg/mL; in assay [10], 1 µg/mL. Further, the MIC was at least 16 µg/mL in the assay with E.coli 1113 [3], at least 16 µg/mL in the assay with E.coli 1146 [4] and at least 8 µg/mL against E.coli 1146 [6] (Escherichia coli). Further, the MIC, Vitek 2 with E.coli 1113 [5] was over 8 µg/mL. The Sensibility result with E.coli 1113 [5] and with E.coli 1146 [6] was “R” throughout. Besides, the “MIC, FDAA” value in [7] was at least 32 µg/mL. For the same compound, the MIC, VITEK is 0.5 µg/mL (≈ 1.38 µM) in assay [11], at least 256 µg/mL in [12] and 16 µg/mL (≈ 44.3 µM) in assay [13].

Values taken from US20240240224A1, “FLUORESCENT D-TYPE AMINO ACID METABOLISM MARKER-BASED METHOD FOR DETECTING ANTIBACTERIAL DRUG SENSITIVITY TEST” (priority 2020, published 2024).
